Assay results taken from patent publication US20240287022A1 (Merck Sharp & Dohme LLC, priority 2021, published 2024).

Biological target: recombinant IL4I1 (Homo sapiens (Human), UniProt Q96RQ9)
Assay: IL4I1 Enzymatic Assay (Amplex Red/HRP coupled H2O2 detection)
Assay type: biochemical
Conditions: 1 nM IL4I1, 1 mM each Phe/Tyr/Trp, four-hour pre-incubation, 120 minutes reaction, top compound concentration of 10000 nM
Method: Interleukin 4 inducible protein 1 (IL4I1) is an L-amino oxidase that catalyzes the oxidation of aromatic residues (Phe, Trp and Tyr): L-amino acid+H2O+O2→2-oxo acid+NH3+H2O2. Equal molar of H2O2 and the corresponding alpha-ketoacid are produced when IL4I1 and substrate are added. In this assay, the hydrogen peroxide generated by IL4I1 are then detected through a coupled reaction with Amplex Red (10-acetyl-3,7-dihydroxyphenoxazine) and […] (HRP) to produce Resorufin product that could be detected in the form of fluorescence signals. The assessment of the inhibitory effect of small molecules (EC50) on IL4I1 is measured by the effectiveness of the compounds to inhibit the production of H2O2.
Using this assay, the potency (EC50) of each compound was determined from a ten-point (1:3 serial dilution; top compound concentration of 10000 nM) titration curve using the following outlined procedure. To each well of a black flat-bottom Greiner (Cat #781076) 384 well-plate, 25 nL of compound (0.1% DMSO in final assay volume of 25 μL) was dispensed, followed by the addition of 12.5 μL of 1× assay buffer (50 mM Hepes 7.0 and 0.005% Tween20 (Sigma, Cat #P8341; low peroxide grade)) containing 2 nM of recombinant IL4I1 (R&D Systems, Cat #5684-AO-020). Plates were placed in an ambient temperature humidified chamber for a four-hour pre-incubation with compound. Subsequently, each reaction was initiated by the addition of 12.5 μL 1× assay buffer containing 2 mM of each aromatic amino acids (Phe/Tyr/Trp), 0.1 mM Amplex Red and 2 U/mL of HRP. The final reaction in each well of 25 μL consists of 1 nM of IL4I1, 1 mM of each residues (Phe, Tyr and Trp), 0.05 mM Amplex Red and 1 U/mL of HRP. It should be noted that the concentrations of Amplex Red and HRP used here are in excess such that the conversion of H2O2 to Resorufin product occurs instantaneously and non-rate limiting. Reactions were allowed to proceed for 120 minutes followed by fluorescence readout on a Spectramax with the following set parameters: 544 nm excitation/590 nm emission, 570 nm cutoff (EnVision is an alternative reader). Dose-response curves were generated by plotting percent effect (% product conversion; Y-axis) vs. Log10 compound concentrations (X-axis). EC50 values were calculated using a non-linear regression, four-parameters sigmoidal dose-response model.

Chain of recombinant IL4I1 (Q96RQ9 22-567): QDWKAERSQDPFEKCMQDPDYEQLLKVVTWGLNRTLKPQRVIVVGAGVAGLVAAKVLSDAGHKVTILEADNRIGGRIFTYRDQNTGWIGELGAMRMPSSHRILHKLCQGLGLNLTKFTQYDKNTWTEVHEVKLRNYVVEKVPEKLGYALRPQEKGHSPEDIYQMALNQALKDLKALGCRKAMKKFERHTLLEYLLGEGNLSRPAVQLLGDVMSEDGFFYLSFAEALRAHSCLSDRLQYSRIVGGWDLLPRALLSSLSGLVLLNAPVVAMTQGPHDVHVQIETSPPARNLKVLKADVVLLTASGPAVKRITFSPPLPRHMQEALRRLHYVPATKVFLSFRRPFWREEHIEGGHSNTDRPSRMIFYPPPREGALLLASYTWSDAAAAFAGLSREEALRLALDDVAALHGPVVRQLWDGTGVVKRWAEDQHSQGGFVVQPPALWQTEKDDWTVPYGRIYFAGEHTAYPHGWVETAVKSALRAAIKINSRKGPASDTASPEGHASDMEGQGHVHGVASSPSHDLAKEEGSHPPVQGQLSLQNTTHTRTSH

SMILES	EC50 [nM]
N#CC1(c2ccc(Cc3cc4ccccc4[nH]c3=O)cc2)CCOCC1 [Example 107, 4-(4-((2-oxo-1,2-dihydroquinolin-3-yl)methyl)phenyl)tetrahydro-2H-pyran-4-carbonitrile]	3.2
O=C1COc2c(F)cc(Cc3cc4ccccc4[nH]c3=O)cc2N1 [Example 176, 8-Fluoro-6-((2-oxo-1,2-dihydroquinolin-3-yl)methyl)-2H-benzo[b][1,4]oxazin-3(4H)-one]	1.4
O=C1CCc2cc(Cc3cc4cc(F)ccc4[nH]c3=O)ccc2N1 [Example 123, 6-fluoro-3-((2-oxo-1,2,3,4-tetrahydroquinolin-6-yl)methyl)quinolin-2(1H)-one]	3.7
N#CC1CC(Oc2ccc(Cc3cc4ccccc4[nH]c3=O)cc2)C1 (centres unmarked) [Example 146, 3-(4-((2-oxo-1,2-dihydroquinolin-3-yl)methyl)phenoxy)cyclobutane-1-carbonitrile]	1.7
N#Cc1c[nH]c2ccc(Cc3cc4ccccc4[nH]c3=O)nc12 [Example 96, 5-((2-oxo-1,2-dihydroquinolin-3-yl)methyl)-1H-pyrrolo[3,2-b]pyridine-3-carbonitrile]	2
O=c1[nH]c2ccccc2cc1Cc1ccc(C2COCC2O)cc1 (centres unmarked) [Example 182, 3-(4-(4-hydroxytetrahydrofuran-3-yl)benzyl)quinolin-2(1H)-one]	7.3
N#CC1(c2ccc(Cc3cc4ccccc4[nH]c3=O)cc2)CC(O)C1 (single isomer, unassigned) [Example 101A, 3-hydroxy-1-(4-((2-oxo-1,2-dihydroquinolin-3-yl)methyl)phenyl)cyclobutane-1-carbonitrile]	2.6
O=c1[nH]c2ccccc2cc1Cc1cnn2ncccc12 [Example 158, 3-(pyrazolo[1,5-b]pyridazin-3-ylmethyl)quinolin-2(1H)-one]	60.2
O=C1N(c2ccc(Cc3cc4cnccc4[nH]c3=O)cc2)CCC1(F)F [compound 62, 3-(4-(3,3-difluoro-2-oxopyrrolidin-1-yl)benzyl)-1,6-naphthyridin-2(1H)-one]	6
COc1ccc(C#N)cc1Cc1nnc(Cc2cc3ccccc3[nH]c2=O)o1 [Example 35, 4-methoxy-3-((5-((2-oxo-1,2-dihydroquinolin-3-yl)methyl)-1,3,4-oxadiazol-2-yl)methyl)benzonitrile]	46.5
O=C1OCCN1c1ccc(Cc2cc3ccccc3[nH]c2=O)cn1 [Example 108, 3-(5-((2-oxo-1,2-dihydroquinolin-3-yl)methyl)pyridin-2-yl)oxazolidin-2-one]	1.9
CC(=O)NCc1ncc(Cc2cc3ccccc3[nH]c2=O)cc1Cl [Example 68, N-((3-chloro-5-((2-oxo-1,2-dihydroquinolin-3-yl)methyl)pyridin-2-yl)methyl)acetamide]	12.3
O=c1[nH]c2ccccc2cc1Cc1ccc2nn[nH]c2c1 [Example 132, 3-((1H-benzo[d][1,2,3]triazol-6-yl)methyl)quinolin-2(1H)-one]	18.6
O=c1[nH]c2ccccc2cc1Cc1nnc(-c2ccc(C(F)(F)F)cc2)o1 [Example 7, 3-((5-(4-(trifluoromethyl)phenyl)-1,3,4-oxadiazol-2-yl)methyl)quinolin-2(1H)-one]	82.2
CC(C)(O)Cc1ccc(Cc2cc3ccccc3[nH]c2=O)cc1 [Example 179, 3-(4-(2-Hydroxy-2-methylpropyl)benzyl)quinolin-2(1H)-one]	4.9
O=c1[nH]c2ccccc2cc1Cc1ccc(-c2cn[nH]c2)cc1 [Example 125, 3-(4-(1H-pyrazol-4-yl)benzyl)quinolin-2(1H)-one]	6.1
Cc1cc(Cc2cc3ccccc3[nH]c2=O)cnc1-c1cccc(F)c1 [Example 131, 3-((6-(3-fluorophenyl)-5-methylpyridin-3-yl)methyl)quinolin-2(1H)-one]	3.7
O=c1[nH]c2ccccc2cc1Cc1nnc(-c2cc(C(F)(F)F)[nH]n2)o1 [Example 28, 3-((5-(5-(trifluoromethyl)-1H-pyrazol-3-yl)-1,3,4-oxadiazol-2-yl)methyl)quinolin-2(1H)-one]	125
COc1cc(C#N)cc(Cc2cc3ccccc3[nH]c2=O)c1 [Example 133, 3-methoxy-5-((2-oxo-1,2-dihydroquinolin-3-yl)methyl)benzonitrile]	2

SMILES	EC50 [nM]
CC1(C)CN(c2ccc(Cc3cc4ccccc4[nH]c3=O)cn2)C(=O)O1 [Example 52, 5,5-dimethyl-3-(5-((2-oxo-1,2-dihydroquinolin-3-yl)methyl)pyridin-2-yl)oxazolidin-2-one]	10.7
O=c1[nH]c2ccncc2cc1Cc1ccc2ccccc2c1 [Example 115, 3-(naphthalen-2-ylmethyl)-1,6-naphthyridin-2(1H)-one]	1.4
O=c1[nH]c2ccccc2cc1Cc1nnc(-c2cn3cccnc3n2)o1 [Example 12, 3-((5-(imidazo[1,2-a]pyrimidin-2-yl)-1,3,4-oxadiazol-2-yl)methyl)quinolin-2(1H)-one]	429
CC(c1nnc(Cc2cc3ccccc3[nH]c2=O)o1)C1CC1 (racemic) [Example 19, rac-3-((5-(1-cyclopropylethyl)-1,3,4-oxadiazol-2-yl)methyl)quinolin-2(1H)-one]	125
O=c1[nH]c2ccccc2cc1Cc1ccc([C@H]2CCNC2)cc1 [65B]	9
CC(=O)NCc1ccc(Cc2cc3ccccc3[nH]c2=O)c(Cl)c1 [compound 67, N-(3-chloro-4-((2-oxo-1,2-dihydroquinolin-3-yl)-methyl)benzyl)acetamide]	15.6
N#Cc1cnn2ccc(Cc3cc4ccccc4[nH]c3=O)cc12 [Example 92, 5-((2-oxo-1,2-dihydroquinolin-3-yl)methyl)pyrazolo[1,5-a]pyridine-3-carbonitrile]	1.7
O=C1COc2c(Cc3cc4cccc5c4n(c3=O)CCC5)cccc2N1 [Example 149, 8-((5-oxo-2,3-dihydro-1H,5H-pyrido[3,2,1-ij]quinolin-6-yl)methyl)-2H-benzo[b][1,4]oxazin-3(4H)-one]	150
O=c1[nH]c2ccccc2cc1Cc1nnc(C2CCC2)o1 [Example 32, 3-((5-cyclobutyl-1,3,4-oxadiazol-2-yl)methyl)quinolin-2(1H)-one]	168
O=C1CCc2cc(Cc3cc4ccccc4[nH]c3=O)ccc2N1 [Example 154, 3-((2-oxo-1,2,3,4-tetrahydroquinolin-6-yl)methyl)quinolin-2(1H)-one]	5.4
O=c1[nH]c2ccccc2cc1Cc1nnc(C2CCCCC2)o1 [Example 9, 3-((5-cyclohexyl-1,3,4-oxadiazol-2-yl)methyl)quinolin-2(1H)-one]	51.1
CC1CN(c2ccc(Cc3cc4cnccc4[nH]c3=O)cc2)C(=O)O1 (single isomer, unassigned) [Example 189, (S or R)-5-methyl-3-(4-((2-oxo-1,2-dihydro-1,6-naphthyridin-3-yl)methyl)phenyl)oxazolidin-2-one]	16.7
O=C1OC(CO)CN1c1ccc(Cc2cc3ccccc3[nH]c2=O)cn1 (racemic) [Example 49, rac-5-(hydroxymethyl)-3-(5-((2-oxo-1,2-dihydroquinolin-3-yl)methyl)pyridin-2-yl)oxazolidin-2-one]	15.6
CC(=O)NCc1cccc(Cc2cc3ccccc3[nH]c2=O)c1 [Example 128, N-(3-((2-oxo-1,2-dihydroquinolin-3-yl)methyl)benzyl)acetamide]	30.4
CC(O)C(C#N)c1ccc(Cc2cc3ccccc3[nH]c2=O)cc1 (single isomer, unassigned) [Example 102D, 3-hydroxy-2-(4-((2-oxo-1,2-dihydroquinolin-3-yl)methyl)phenyl)butanenitrile]	10.9
O=c1[nH]c2ccccc2cc1Cc1nnc(C2(C(F)(F)F)CC2)o1 [Example 34, 3-((5-(1-(trifluoromethyl)cyclopropyl)-1,3,4-oxadiazol-2-yl)methyl)quinolin-2(1H)-one]	653
Cc1n[nH]c(-c2nnc(Cc3cc4ccccc4[nH]c3=O)o2)c1C [Example 44, 3-((5-(3,4-dimethyl-1H-pyrazol-5-yl)-1,3,4-oxadiazol-2-yl)methyl)quinolin-2(1H)-one]	7.7
CS(=O)(=O)NCc1ncc(Cc2cc3ccccc3[nH]c2=O)cc1Cl [Example 91, N-((3-chloro-5-((2-oxo-1,2-dihydroquinolin-3-yl)methyl)pyridin-2-yl)methyl)methanesulfonamide]	10.9
O=C1CCc2ccc(Cc3cc4ccccc4[nH]c3=O)cc21 [Example 75, 3-((3-oxo-2,3-dihydro-1H-inden-5-yl)methyl)quinolin-2(1H)-one]	0.9
